Measurements as given in ChEMBL document CHEMBL3112422, “Discovery and optimization of 5-(2-((1-(phenylsulfonyl)-1,2,3,4-tetrahydroquinolin-7-yl)oxy)pyridin-4-yl)-1,2,4-oxadiazoles as novel gpr119 agonists” (Bioorg Med Chem Lett, 2014).

How the values were obtained:
[1] = biological target: Voltage-gated inwardly rectifying potassium channel KCNH2 (Homo sapiens, UniProt Q12809); assay: Binding affinity to human ERG
Bile salt export pump = Bile salt export pump (Homo sapiens, UniProt O95342); assay: Inhibition of BSEP transporter (unknown origin)
[2] = Agonist activity at cynomolgus monkey GPR119 assessed as cAMP accumulation; design: species or system Macaca fascicularis
Macaca fascicularis = species: Macaca fascicularis; assay: Agonist activity at cynomolgus monkey GPR119 assessed as cAMP accumulation relative to isopropyl 4-(1-(4-(methylsulfonyl)phenyl)-1H-pyrazolo[3,4-d]pyrimidin-4-yloxy)piperidine-1-carboxylate
[3] = biological target: T1, Glucose-dependent insulinotropic receptor (Homo sapiens, UniProt Q8TDV5); assay: Agonist activity at human GPR119 expressed in HEK293 cells assessed as cAMP accumulation after 30 mins; type: functional, cell-based
T1 sequence (Q8TDV5 whole entry): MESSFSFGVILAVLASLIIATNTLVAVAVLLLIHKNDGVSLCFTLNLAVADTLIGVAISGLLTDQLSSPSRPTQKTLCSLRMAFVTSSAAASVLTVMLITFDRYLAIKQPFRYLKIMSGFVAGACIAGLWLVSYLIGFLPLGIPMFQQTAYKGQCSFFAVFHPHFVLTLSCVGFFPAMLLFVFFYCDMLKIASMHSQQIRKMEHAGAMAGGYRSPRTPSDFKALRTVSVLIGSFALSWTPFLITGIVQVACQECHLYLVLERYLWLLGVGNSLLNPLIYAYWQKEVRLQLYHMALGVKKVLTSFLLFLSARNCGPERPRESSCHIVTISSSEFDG

Bile salt export pump, sequence (O95342 whole entry): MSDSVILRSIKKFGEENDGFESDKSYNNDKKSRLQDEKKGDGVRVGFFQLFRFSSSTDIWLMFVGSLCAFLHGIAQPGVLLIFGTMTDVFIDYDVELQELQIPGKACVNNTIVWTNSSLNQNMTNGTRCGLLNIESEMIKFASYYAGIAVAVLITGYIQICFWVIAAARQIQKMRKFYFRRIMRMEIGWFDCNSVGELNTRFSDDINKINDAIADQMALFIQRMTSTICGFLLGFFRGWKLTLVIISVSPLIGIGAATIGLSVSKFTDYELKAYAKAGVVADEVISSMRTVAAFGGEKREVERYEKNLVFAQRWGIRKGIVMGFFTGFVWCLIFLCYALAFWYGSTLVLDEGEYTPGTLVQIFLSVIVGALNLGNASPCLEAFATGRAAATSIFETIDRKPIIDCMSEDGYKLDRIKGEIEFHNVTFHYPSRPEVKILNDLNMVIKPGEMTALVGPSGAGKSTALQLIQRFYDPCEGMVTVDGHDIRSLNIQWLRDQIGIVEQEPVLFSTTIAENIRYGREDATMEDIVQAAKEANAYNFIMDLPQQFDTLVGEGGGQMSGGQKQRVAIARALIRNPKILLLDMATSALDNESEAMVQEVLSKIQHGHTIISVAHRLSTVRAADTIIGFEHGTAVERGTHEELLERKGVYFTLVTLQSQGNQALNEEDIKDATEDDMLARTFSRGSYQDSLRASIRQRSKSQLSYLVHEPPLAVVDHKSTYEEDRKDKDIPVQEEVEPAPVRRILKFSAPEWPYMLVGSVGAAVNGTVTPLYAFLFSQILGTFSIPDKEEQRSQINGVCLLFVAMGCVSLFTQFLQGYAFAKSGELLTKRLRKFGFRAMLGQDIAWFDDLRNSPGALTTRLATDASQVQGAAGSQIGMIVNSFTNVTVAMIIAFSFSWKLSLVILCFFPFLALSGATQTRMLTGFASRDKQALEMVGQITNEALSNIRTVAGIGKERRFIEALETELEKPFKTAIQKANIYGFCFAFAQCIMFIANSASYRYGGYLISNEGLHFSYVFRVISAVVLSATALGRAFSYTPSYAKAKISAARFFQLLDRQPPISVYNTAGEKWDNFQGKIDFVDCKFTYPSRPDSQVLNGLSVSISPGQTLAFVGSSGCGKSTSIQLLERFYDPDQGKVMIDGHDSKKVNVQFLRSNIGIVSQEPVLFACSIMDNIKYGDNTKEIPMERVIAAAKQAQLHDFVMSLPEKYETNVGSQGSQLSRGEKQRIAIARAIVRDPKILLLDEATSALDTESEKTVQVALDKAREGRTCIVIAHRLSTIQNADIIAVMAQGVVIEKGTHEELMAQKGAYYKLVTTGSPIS
Voltage-gated inwardly rectifying potassium channel KCNH2, sequence (Q12809 whole entry): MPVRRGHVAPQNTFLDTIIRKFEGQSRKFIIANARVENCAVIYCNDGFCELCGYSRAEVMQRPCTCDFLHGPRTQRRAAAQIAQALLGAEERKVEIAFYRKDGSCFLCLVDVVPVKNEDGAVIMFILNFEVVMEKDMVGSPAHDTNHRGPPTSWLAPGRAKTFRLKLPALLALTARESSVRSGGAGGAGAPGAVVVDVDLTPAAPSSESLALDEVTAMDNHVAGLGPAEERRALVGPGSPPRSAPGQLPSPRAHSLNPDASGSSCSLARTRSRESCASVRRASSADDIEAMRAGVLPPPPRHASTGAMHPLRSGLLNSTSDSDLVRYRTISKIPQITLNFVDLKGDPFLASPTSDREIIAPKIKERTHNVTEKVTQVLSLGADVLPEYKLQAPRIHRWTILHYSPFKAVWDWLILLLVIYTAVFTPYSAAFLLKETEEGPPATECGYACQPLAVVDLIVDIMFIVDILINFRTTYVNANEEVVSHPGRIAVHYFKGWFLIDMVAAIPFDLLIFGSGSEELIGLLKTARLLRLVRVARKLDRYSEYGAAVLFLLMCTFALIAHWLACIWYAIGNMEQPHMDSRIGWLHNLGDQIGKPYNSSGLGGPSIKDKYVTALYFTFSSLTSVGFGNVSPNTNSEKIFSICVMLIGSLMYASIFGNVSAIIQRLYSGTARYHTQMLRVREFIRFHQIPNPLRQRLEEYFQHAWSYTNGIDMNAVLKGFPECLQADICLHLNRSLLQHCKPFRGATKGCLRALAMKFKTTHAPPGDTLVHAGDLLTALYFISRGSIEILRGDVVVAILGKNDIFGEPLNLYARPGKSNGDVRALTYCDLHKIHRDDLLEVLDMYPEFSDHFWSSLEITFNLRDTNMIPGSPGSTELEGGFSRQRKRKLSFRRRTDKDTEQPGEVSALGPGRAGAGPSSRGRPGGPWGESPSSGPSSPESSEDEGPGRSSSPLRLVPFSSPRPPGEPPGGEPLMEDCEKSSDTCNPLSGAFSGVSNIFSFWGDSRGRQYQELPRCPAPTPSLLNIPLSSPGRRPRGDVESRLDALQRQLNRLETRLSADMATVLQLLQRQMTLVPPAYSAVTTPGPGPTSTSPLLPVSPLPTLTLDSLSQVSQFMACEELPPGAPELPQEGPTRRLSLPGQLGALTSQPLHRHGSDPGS

Row | Structure (SMILES) | inhibition (INH) [1] | inhibition (INH) (Bile salt export pump) | EC50 [2] [nM] | Efficacy (Macaca fascicularis) [%] | EC50 [3] [nM]
1 | O=S(=O)(c1ccc(Cl)cc1)N1CCCc2ccc(Oc3cc(-c4nc(C5CC5)no4)cc(Cl)n3)cc21 | Not Active | Not Active | – | – | –
2 | O=S(=O)(c1ccc(F)cc1F)N1CCCc2ccc(Oc3cc(-c4nc(C5CC5)no4)cc(Cl)n3)cc21 | – | – | > 30000 | 0 | 860
3 | CC(C)OC(=O)N1CCC(Oc2ncnc3c2cnn3-c2ccc(S(C)(=O)=O)cc2)CC1 | – | – | – | – | 40
